According to patent publication US8227422B2, “Peptides and compounds that bind to a receptor” (Glaxosmithkline LLC, priority 1996, dated 2012):
Like-named read-outs stand apart in the source and are kept apart here. Where a SMILES comes first, the peptide text is derived from it.

Key:
TPO receptor = target: T1, TPO receptor (Homo sapiens, UniProt P40238); experiment: Microphysiometer assay: rate of acidification of extracellular medium on TPO receptor stimulation; format: cell-based
T1 sequence (P40238 26-635): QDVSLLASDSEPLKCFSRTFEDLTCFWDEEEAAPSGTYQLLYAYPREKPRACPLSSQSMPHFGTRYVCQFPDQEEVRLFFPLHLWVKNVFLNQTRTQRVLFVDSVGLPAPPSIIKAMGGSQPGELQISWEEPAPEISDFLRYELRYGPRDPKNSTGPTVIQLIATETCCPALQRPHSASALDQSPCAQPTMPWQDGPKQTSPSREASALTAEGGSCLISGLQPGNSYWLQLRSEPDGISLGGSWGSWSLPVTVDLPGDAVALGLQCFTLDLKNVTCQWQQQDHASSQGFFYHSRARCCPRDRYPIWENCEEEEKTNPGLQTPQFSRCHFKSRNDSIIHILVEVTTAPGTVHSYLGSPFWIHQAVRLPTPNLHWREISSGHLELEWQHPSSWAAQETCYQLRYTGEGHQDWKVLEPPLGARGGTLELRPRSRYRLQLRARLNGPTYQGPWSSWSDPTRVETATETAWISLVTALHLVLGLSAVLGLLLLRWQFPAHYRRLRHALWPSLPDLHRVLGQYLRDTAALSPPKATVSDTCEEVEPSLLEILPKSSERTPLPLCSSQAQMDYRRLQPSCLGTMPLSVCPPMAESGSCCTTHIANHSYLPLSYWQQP
Experimental: In this example cyclized compounds were subjected to three assays. […] Finally, a microphysiometer (Molecular Devices Corp.) assay was performed. […] The ranges for EC50 are symbolically indicated as for IC50 described above.

[1] = target: T2, human TPO-R (transfected Ba/F3 cells) (Homo sapiens, UniProt P40238); experiment: Thrombopoietin dependent cell proliferation assay (MTT), TPO-R transfected Ba/F3 cells; format: cell-based
T2 construct: Murine IL-3 dependent Ba/F3 cells were transfected with full length human TPO-R; expressed in transfected cells; host or cells: murine Ba/F3 cells
T2 sequence (P40238 26-635): T1 sequence (P40238 26-635)
Experimental: Bioactivity of the peptides can be measured using a thrombopoietin dependent cell proliferation assay. Murine IL-3 dependent Ba/F3 cells were transfected with full length human TPO-R. In the absence of IL-3 (WEHI-3 conditioned media), these cells are dependent on TPO for proliferation.
The cells were grown in complete RPMI-10 media, containing 10% WEHI-3 conditioned media, then washed twice in PBS, resuspended in media which lacked WEHI-3 conditioned media, and added to wells containing dilutions of peptide or TPO at 2×10^4 cells/well. The cells were incubated for 48 hours at 37° C. in a humidified 5% CO2 atmosphere and metabolic activity was assayed by the reduction of MTT to formazan, with absorbance at 570 nm measured on an ELISA plate reader.

[2] = Table 4, cyclized compounds, microphysiometer, read-out: EC50 (nM) Microonys
[3] = Table 4, cyclized compounds, read-out: EC50 (nM) Proliferation

`CC[C@H](C)[C@@H]1NC(=O)[C@H](Cc2c[nH]c3ccccc23)NC(=O)[C@H](CCC(=O)O)NC(=O)[C@H](CCCNC(=N)N)NC(=O)[C@H](CC(C)C)NC(=O)[C@H]([C@@H](C)O)NC(=O)[C@@H]2CCCN2C(=O)CNC(=O)[C@H](CC(=O)O)NC(=O)[C@H](C)NC(=O)CSC[C@@H](C(N)=O)NC(=O)[C@H](Cc2ccccc2)NC(=O)[C@H](CO)NC1=O` (HELM PEPTIDE1{[O=C(C[*:3])[*:2]].A.D.G.P.T.L.R.E.W.I.S.F.C.[am]}$PEPTIDE1,PEPTIDE1,1:R3-14:R3$$$V2.0) was tested, and the EC50 (TPO receptor; [2]) was under 500 nM and the EC50 [1, 3] was under 500 nM.

For `CC[C@H](C)[C@@H]1NC(=O)[C@H](Cc2c[nH]c3ccccc23)NC(=O)[C@H](CCC(=O)O)NC(=O)[C@H](CCCNC(=N)N)NC(=O)[C@H](CC(C)C)NC(=O)[C@H]([C@@H](C)O)NC(=O)[C@@H]2CCCN2C(=O)CNC(=O)[C@H](CC(=O)O)NC(=O)[C@H](C)NC(=O)[C@@H](N)CCC(=O)NCCCC[C@@H](C(N)=O)NC(=O)[C@H](Cc2ccccc2)NC(=O)[C@H](CO)NC1=O` (HELM PEPTIDE1{E.A.D.G.P.T.L.R.E.W.I.S.F.K.[am]}$PEPTIDE1,PEPTIDE1,1:R3-14:R3$$$V2.0), the EC50 (TPO receptor; [2]) was under 200000 nM and the EC50 [1, 3] was under 200000 nM.

`CC[C@H](C)[C@@H]1NC(=O)[C@H](Cc2c[nH]c3ccccc23)NC(=O)[C@H](CCC(=O)O)NC(=O)[C@H](CCCNC(=N)N)NC(=O)[C@H](CC(C)C)NC(=O)[C@H]([C@@H](C)O)NC(=O)[C@@H]2CCCN2C(=O)CNC(=O)[C@H](CC(=O)O)NC(=O)[C@H](C)NC(=O)[C@@H](N)CCSSC[C@@H](C(N)=O)NC(=O)[C@H](Cc2ccccc2)NC(=O)[C@H](CO)NC1=O` (HELM PEPTIDE1{[N[C@@H](CCS[*:3])C(=O)[*:2]].A.D.G.P.T.L.R.E.W.I.S.F.C.[am]}$PEPTIDE1,PEPTIDE1,1:R3-14:R3$$$V2.0) gave an EC50 (TPO receptor; [2]) of under 500 nM and an EC50 [1, 3] of under 500 nM.

`CC[C@H](C)[C@@H]1NC(=O)[C@H](Cc2c[nH]c3ccccc23)NC(=O)[C@H](CCC(=O)O)NC(=O)[C@H](CCCNC(=N)N)NC(=O)[C@H](CC(C)C)NC(=O)[C@H]([C@@H](C)O)NC(=O)[C@@H]2CCCN2C(=O)CNC(=O)[C@H](CC(=O)O)NC(=O)[C@H](C)NC(=O)[C@H](N)CSSC[C@H](C(N)=O)NC(=O)[C@H](Cc2ccccc2)NC(=O)[C@H](CO)NC1=O` (HELM PEPTIDE1{[dC].A.D.G.P.T.L.R.E.W.I.S.F.[dC].[am]}$PEPTIDE1,PEPTIDE1,1:R3-14:R3$$$V2.0) showed an EC50 (TPO receptor; [2]) of under 200000 nM and an EC50 [1, 3] of under 200000 nM.

Molecule `CC(C)C[C@H](NC(=O)[C@H](Cc1c[nH]c2ccccc12)NC(=O)[C@H](CCC(N)=O)NC(=O)[C@H](CCCNC(=N)N)NC(=O)[C@H](CC(C)C)NC(=O)[C@@H](NC(=O)[C@@H]1CCCN1C(=O)CNC(=O)[C@H](CSSC[C@H](NC(=O)[C@H](CCC(N)=O)NC(=O)[C@@H](NC(=O)[C@@H](N)CO)C(C)C)C(=O)NCC(=O)N1CCC[C@H]1C(=O)N[C@H](C(=O)N[C@@H](CC(C)C)C(=O)N[C@@H](CCCNC(=N)N)C(=O)N[C@@H](CCC(N)=O)C(=O)N[C@@H](Cc1c[nH]c2ccccc12)C(=O)N[C@@H](CC(C)C)C(=O)N[C@@H](C)C(=O)N[C@@H](C)C(=O)N[C@@H](CCCNC(=N)N)C(=O)N[C@@H](CC(N)=O)C(=O)N[C@@H](Cc1c[nH]cn1)C(=O)N[C@@H](CC(C)C)C(=O)N[C@@H](CO)C(N)=O)[C@@H](C)O)NC(=O)[C@H](CCC(N)=O)NC(=O)[C@@H](NC(=O)[C@@H](N)CO)C(C)C)[C@@H](C)O)C(=O)N[C@@H](C)C(=O)N[C@@H](C)C(=O)N[C@@H](CCCNC(=N)N)C(=O)N[C@@H](CC(N)=O)C(=O)N[C@@H](Cc1c[nH]cn1)C(=O)N[C@@H](CC(C)C)C(=O)N[C@@H](CO)C(N)=O` (HELM PEPTIDE1{S.V.Q.C.G.P.T.L.R.Q.W.L.A.A.R.N.H.L.S.[am]}|PEPTIDE2{S.V.Q.C.G.P.T.L.R.Q.W.L.A.A.R.N.H.L.S.[am]}$PEPTIDE1,PEPTIDE2,4:R3-4:R3$$$V2.0; bridges inferred) has an EC50 (TPO receptor; Table 7, dimer compounds, read-out: EC50 (nM) Microonys.) of under 500 nM and an EC50 ([1]; Table 7, dimer compounds, read-out: EC50 (nM) Prolif.) of under 500 nM.
